Tests used:
[1] = tested on: human keratinocyte cells (HaCaT line) and fibroblasts
Procedure: For each of the substances above, the maximum non-cytotoxic doses were determined, corresponding to cell viability ≥90% (hereafter “NCD”). Cell viability was evaluated by a neutral red test (NR) on human keratinocyte cells (HaCaT line) and on fibroblasts described hereafter after contact for 48 h. The substances were poured into the culture medium DMEM+10% FCS.

HaCaT keratinocytes = assay: DCFH assay: UV-B-induced intracellular ROS (epidermal anti-oxidant potential, AOE); assay type: cell-based, human; conditions: for AOE, % reduction of [ROSUV]: vs (+) UV control
Description: 3.1.1) The principle of the assay is based on the measurement of the intracellular oxidation level by means of the probe: 2′,7′-dichloro-dihydrofluorescein diacetate (DCFH-DA). Non-fluorescent DCFH-DA penetrates by passive diffusion into the cells. After cleavage of the acetate groups by the esterases, DCFH accumulates at the cytosol. The oxidation of DCFH by the reactive oxygen species (ROS: “Reactive Oxidative Species”) leads to the formation of a fluorescent compound. The DCF fluorescence intensity gives the possibility of evaluating the oxidation level of the cells subject to an oxidative stress.
More specifically, the measurement of the fluorescence intensities of DCF gives the possibility of evaluating the oxidation level of the cells subject to an oxidative stress. The DCFH assay detects a large range of ROSes: hydroxyl peroxyl and other ROSes (Fluorescence probes used for detection of reactive oxygen species, A. Gomes et al., J. Biochem. Biophys. Methods, 65:45-80; 2005).
HaCaT keratinocytes cultivated in a mono-layer are detached by trypsinization. The cell suspension is sown in 24-well plates.
2 plates are sown in parallel: 1 plate [DCFH] (measurement of DCFH fluorescence) and 1 plate [Prot] (measurement of cell proteins).
The plates [DCFH] and [Prot] are treated in parallel, in an identical way, according to the following experimental procedure.
72 hours after sowing, the culture medium is removed and replaced with fresh medium containing the assay element. The cells are replaced at 37° C. and incubated for 24 hours, in an air-CO2 atmosphere (95%/5%). After incubation with the assay element, the cells are rinsed with HBSS (a so called Hanks solution) and then exposed to UV-B (Philips TL-K 40 W ACTINIC BL REFLECTOR tubes) through the HBSS. The cells were treated with the various assayed complexes before (24 h) and after (24 h) irradiation with UV-B for about 30 minutes at 20 mJ/cm^2.
After irradiation, the HBSS is replaced with fresh medium containing the assay element. The cells are replaced at 37° C. for 24 h in an air-CO2 atmosphere (95%/5%). At the end of the assay, the [DCFH] and [Prot] plates are treated, in the following way:
The [DCFH] plates are emptied and rinsed with PBS. The cells are then incubated at 37° C., in the presence of a DCFH-DA solution. After incorporating the probe, the cells are rinsed with PBS. An extraction buffer (Triton X-100 1%) is added into each well. After 45 mins of incubation, the lyzates are sampled, transferred into 96-well plates. The fluorescence intensities (λExc: 485 nm, λEm: 535 nm) are expressed in relative fluorescence units (RFU).
A dosage of the proteins (BCA protein assay) is carried out in parallel in order to correct the [DCFH] values (RFU/well) according to the cell protein level (pg/well) in order to do without a variation in the number of cells related to an effect of the assay element on cell growth.
The assay was carried out on HaCaT keratinocytes (HaCaTp91 strain) cultivated in a [DMEM+1% FCS] medium. The intracellular oxidation level was measured after treatment and irradiation of the cells.
The intracellular oxidation level (F.R.U/well: relative fluorescence unit) recorded at the control and treated cultures was corrected according to the average cell protein level (μg/well). The values [DCFH] are expressed in arbitrary units (from the optical densities): [DCFH]=(F.R.U/μg prot.).
Assay conditions: • 1. Pretreating the cells for 24 h, with the assay elements, before irradiation of the cells, • 2. Exposure of the cells to UV-B (20 mJ/cm^2), in the absence of the assay elements, • 3. Incubation of the irradiated cells for 24 h, in the presence of the assay elements, • 4. Quantification of the intracellular oxidation level (ROS) by measuring the fluorescence of DCFH.
The intracellular oxidation level (RFU/well) recorded at the control and treated cultures were corrected according to the average level of cell proteins (μg/well). […]

MMP-1 = MMP-1 ELISA on UV-A irradiated fibroblasts (DPM); assay type: cell-based, human; conditions: for DPM, % reduction of MMP-1 / [MMP-1]: VE 1 mM; for [MMP-1]: (+) UV-A, corrected for cell proteins
Procedure: (§1) 3.2.1) The principle of the assay is based on the evaluation of 2 parameters—neosynthesis of collagen I and production of MMP-1—on human fibroblasts [NHDF] cultivated in the absence or in the presence of the assay element, and stimulated by UV-A.
(§2) The level of procollagen I is quantified by assaying [PIP] (procollagen of the I peptide type) in incubation media by means of an ELISA assay. The measurement of the MMP-1 level is conducted on the incubation media by means of an ELISA assay.
(§3) Fibroblasts [NHDF] are detached from their support by trypsinization. After counting, the cell suspension is sown in 24-well plates in an amount of 1.10^5 cells/well, in a [D-MEM+10% FCS] medium.
(§4) After 24 h of incubation, the culture medium is removed and replaced with fresh medium supplemented with 1% of FCS, without any ascorbic acid and containing the product(s) to be investigated. The cells are replaced in the oven and incubated for 24 h, in an air-CO2 atmosphere (95%/5%).
(§5) After incubation with test solutions, the cells are rinsed with HBSS and then exposed to UV-A (Philips TL-K 40 W ACTINIC BL REFLECTOR tubes) through HBSS. The UV-A irradiation is of about 10 J/cm^2 for 1 h. After irradiation, the HBSS is replaced with fresh medium containing the assay element.
(§6) The cells are replaced at 37° C. and incubated for 24 h. At the end of the assay, the incubation media of the cultures are sampled and frozen at −20° C. while awaiting the assaying of procollagen I and of MMP-1.
(§7) In parallel, the cell mats are rinsed with HBSS and treated for an assay of cell proteins (BCA protein assay). A (0.1N) NaOH solution is added into each well. After incubation, the extracts are sampled and transferred into a 96-well plate. 200 μl of BCA reagent are added into each well. After incubation, the absorbance (optical density) is measured at 570 nm with a microplate reader.
The MMP-1 activity is measured with an ELISA assay (Human Active MMP-1 from R&D Systems® laboratories, FRANCE) for detecting and quantifying by fluorescence the MMP-1 activity.
(§8) In both cases, the quantification of the fluorescence is accomplished in the culture supernatants, according to the instructions provided by the R&D Systems® laboratories, France, the absorbance being measured at 450 nm.
(§9) The assay was carried out on [NHDF] (F06.2H7 strain) fibroblasts cultivated in a [DMEM+1% FCS] medium, in the absence of sodium ascorbate.
(§10) The levels of procollagen I and of MMP-1 were measured in the supernatants of the cultures after treatment and irradiation of the cells.
(§11) The NHDF cells were treated with the assay complexes CAAL-2, CAAL-3 and CAAL-4, before (24 h) and after (24 h) UVA irradiation.
(§12) The concentrations of procollagen I [PIP] c-terminal peptide and of metalloproteinase-1 [MMP-1] in the different samples (ng/ml) were corrected according to the protein concentrations of the corresponding wells.
DPM=% of reduction in metalloproteinase-1 after treatment of NHDF fibroblasts with UVs in the presence of the complex according to the invention relatively to a control having been subject to a same UV treatment in the absence of an assay complex according to the present invention or other.
(§13) Assay conditions: • 1. Treating the cells, for 24 h, with the assay elements, before irradiation of the cells, • 2. Exposure of the cells to UV-As, in the absence of the assay elements, • 3. Incubation of the irradiated cells for 24 h, in the presence of the assay elements, • 4. Quantification of the levels of pro-collagen I ([PIP] assay) and of MMP-1 in the incubation media.
(§14) Results: The [PIP] and [MMP] values recorded at the control and treated cultures were corrected according to the average level of cell proteins (μg/well).
MMP-1 production: assay of MMP-1 in the incubation media by an Elisa assay.

procollagen I = assay: Procollagen I [PIP] ELISA on UV-A irradiated fibroblasts (DPC); assay type: cell-based, human
Procedure: as §1, §2, §3, §4, §5, §6, §7
The assay of the procollagen I in the samples is carried out with an ELISA assay (Procollagen Type I C-Peptide EIA Kit from R&D Systems® laboratories, France) for detecting and quantifying by fluorescence the C-terminal peptide of human procollagen I.
as §8, §9, §10, §11, §12
DPC=% of increase in collagen after treatment of the NHDF fibroblast cells with UV in the presence of the complex according to the invention relatively to a control having been subject to a same UV treatment in the absence of the assay complex according to the present invention or other; and
as §13, §14
Synthesis of procollagen I: assay of the [PIP] (procollagen of the type I peptide) assay in the incubation media.

[2] = tested on: HaCaT keratinocytes and NHDF fibroblasts; assay: Skin anti-ageing potential index AAC = AOE + 1/2 DPC + 1/2 DPM; set-up: species or system human; conditions: Example 1; AOE+½DPC+½DPM
Procedure: An anti-age activity index designated as “AAC” was determined according to the present invention, which is a quantitative parameter of the anti-ageing skin potential of a test element taking into account a protective effect at the epidermis by integrating an epidermal anti-oxidant effect score and a protective effect at the dermis by integrating a dermo-protective effect score towards the synthesis of collagen, a main marker of the dermal extracellular matrix (ECM) and/or towards the degradation of metalloproteinase-1 (MMP-1) which is a collagenase enzyme produced by the fibroblasts of the dermis degrading the dermal extracellular matrix (ECM). Still more specifically, a capability is sought for opposing the reduction of collagen synthesis following UV stress and opposing the increase in the production of metalloproteinase-1 for ensuring dermal homeostasis.
More specifically, according to the present invention, an AAC potential is defined as follows:
[AOE]: % of epidermal anti-oxidant potential as defined hereafter.
[DPC.]: % of dermo-protective collagen potential as defined hereafter.
[DPM]: % of dermo-protective MMP1 potential as defined hereafter.
The skin anti-ageing potential ([AAC]) was calculated from the experimental data according to:
[A.A.C]=[AOE]+½.[DPC]+½.[DPM]

[3] = Example 1, NHDF, vs (+) UV control
[4] = Example 1, NHDF, vs (+) UV control, ASC 50 μg/ml
[5] = Example 1, relative to (+) UV control 2 = 100%
[6] = Example 2, NHDF, vs (+) UV control

sodium hyaluronate [SODIUM H[…]]
NCD (%) by weight (maximum non-cytotoxic dose) [1]: 0.2% by weight

O=C1O[C@H]([C@@H](O)CO)C([O-])=C1O.[Na+] [ASC, sodium ascorbate]
AOE, % reduction of [ROSUV] (HaCaT keratinocytes; Example 1, VE 1 mM): 0%
DPM, % reduction of MMP-1 (MMP-1; [3]): 0%
DPC, % increase in collagen (procollagen I; [4]): 143%
[PIP] (%) (procollagen I; [5]): 243%
[PIP] % of (+) UV control (procollagen I; Example 2): 243%
[PIP] (procollagen I; Example 2, NHDF, (+) UV-A, corrected for cell proteins, ASC 50 μg/ml): 3.79 +/− 0.04
DPC dermo-protective collagen potential (procollagen I; [6]): capable of restoring neosynthesis of collagen I depressed by UVs
AAC skin anti-ageing potential [2]: 71.5%

Cc1c(C)c2c(c(C)c1O)CC[C@@](C)(CCC[C@H](C)CCC[C@H](C)CCCC(C)C)O2 [VE, α-tocopherol]
DCFH ASSAY intracellular oxidation level [DCFH] (HaCaT keratinocytes; Example 1, HaCaT, (+) UV-B 20 mJ/cm2, treated 24 h before and 24 h after, complexes at Table I conc., VE 1 mM, average +/- SD, n=3): 35.72 +/− 2.66 F.R.U/μg prot.
UV-induced ROS (HaCaT keratinocytes; Example 1, [DCFH] minus non-irradiated control 1): 22.92 F.R.U/μg prot.
UV-induced ROS (%) (HaCaT keratinocytes; [5]): 19%
AOE, % reduction of [ROSUV] (HaCaT keratinocytes; Example 1, VE 1 mM): 81%
UV-induced ROS (DCFH minus non-irradiated control) (HaCaT keratinocytes; Example 2): 16.38 RFU/μg prot.
DCFH [ROS] intracellular oxidation level (HaCaT keratinocytes; Example 2, HaCaT, (+) UV-B 20 mJ/cm2, DMEM+FCS(1%), average +/- SD, n=3): 28.03 +/− 1.12 RFU/μg prot.
UV-induced ROS (%) (HaCaT keratinocytes; Example 2, relative to (+) UV control = 100%): 12%
AOE anti-oxidant epidermal potential, % reduction of [ROSUV] (HaCaT keratinocytes; Example 2, vitamin E 1 mM): 88%
[MMP-1] (MMP-1; Example 1, NHDF, average +/- SD, n=3): 0.172+/— ng/ml
DPM, % reduction of MMP-1 (MMP-1; [3]): 31%
[MMP-1] (%) (MMP-1; [5]): 69%
[MMP-1] % of (+) UV control (MMP-1; Example 2): 62%
[MMP-1] (MMP-1; Example 2, NHDF): 0.198 +/− 0.006
DPM dermo-protective MMP1 potential, % reduction of MMP-1 (MMP-1; [6]): 38%
DPC, % increase in collagen (procollagen I; [4]): 0%
AAC skin anti-ageing potential [2]: 96.5%

Reference: patent publication US20180140537A1, “ACTIVE COMPLEX FOR A COSMETIC PRODUCT AGAINST SKIN AGEING” (priority 2014, published 2018)
